These results are taken from patent publication US20230132823A1, “BI-FUNCTIONAL COMPOUNDS AND METHODS FOR TARGETED UBIQUITINATION OF ANDROGEN RECEPTOR” (MONTELINO THERAPEUTICS, INC., priority 2020, published 2023).

Experiment [1] addresses T1, glucocorticoid receptor (GR) (Homo sapiens, UniProt P04150).
T1 construct: endogenous in cells; host or cells: 22Rv1
T1 sequence (P04150 1-777): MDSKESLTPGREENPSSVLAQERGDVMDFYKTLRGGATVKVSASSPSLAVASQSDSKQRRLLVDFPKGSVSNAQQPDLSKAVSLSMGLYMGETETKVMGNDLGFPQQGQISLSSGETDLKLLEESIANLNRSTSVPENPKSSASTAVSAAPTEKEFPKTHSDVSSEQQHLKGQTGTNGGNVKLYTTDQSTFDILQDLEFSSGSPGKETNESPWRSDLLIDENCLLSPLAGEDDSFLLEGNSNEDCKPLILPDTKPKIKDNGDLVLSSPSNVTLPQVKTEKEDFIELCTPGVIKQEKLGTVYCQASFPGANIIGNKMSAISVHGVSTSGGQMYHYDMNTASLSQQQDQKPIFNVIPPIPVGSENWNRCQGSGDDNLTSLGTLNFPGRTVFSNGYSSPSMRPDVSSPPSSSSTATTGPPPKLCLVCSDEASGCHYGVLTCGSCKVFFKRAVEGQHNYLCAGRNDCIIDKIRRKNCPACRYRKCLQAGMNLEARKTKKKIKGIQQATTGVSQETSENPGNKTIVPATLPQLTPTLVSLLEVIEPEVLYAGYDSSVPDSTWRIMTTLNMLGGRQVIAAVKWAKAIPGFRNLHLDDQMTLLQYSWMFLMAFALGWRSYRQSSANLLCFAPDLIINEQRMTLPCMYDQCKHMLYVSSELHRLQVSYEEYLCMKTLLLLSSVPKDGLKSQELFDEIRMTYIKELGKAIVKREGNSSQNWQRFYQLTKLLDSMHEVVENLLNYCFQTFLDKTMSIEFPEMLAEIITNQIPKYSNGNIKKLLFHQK
Put plainly: Immunoblot of GR in 22Rv1 cells. The class given is cell-based. To be noted: 22Rv1, 24 hours, up to 10 μM. The method, then: Cell Culture. Human CaP cell lines, LNCaP, 22Rv1, VCaP, PC3, and DU145 are obtained from the American Type Culture Collection (ATCC) and maintained in the standard culture media: RPMI-1640 supplemented with 10% fetal bovine serum (FBS). LNCaP, 22Rv1, and VCaP are androgen-responsive cell lines, while PC3 and DU145 are not. To establish SAT resistant CaP cell lines, LNCaP, 22Rv1, and VCaP are treated continuously with 10-50 μM abiraterone, apalutamide, darolutamide, or enzalutamide. After 3-6 months, stable cell lines are established and designated as LNCaP-Abi^R, LNCaP-Apa^R, LNCaP-Daro^R, LNCaP-Enz^R, VCaP-Abi^R, VCaP-Apa^R, VCaP-Daro^R, VCaP-Enz^R, 22Rv1-Abi^R, 22Rv1-Apa^R, 22Rv1-Daro^R and 22Rv1-Enz^R. Unless otherwise specified, the standard culture media for these SAT-resistant cell lines included 10 μM of their respective SAT. For the proteasome inhibitor study, the inhibitors MG132 and Epoxomicin are used. The E3 ligase inhibitors Heclin, Nutlin 3a, Thalidomide, and VH298 are used. […] Mycoplasma contamination is also assessed using a PCR based detection system.
Immunoblot Analysis. […] Cell lysates are then centrifuged and protein in the supernatant is quantified. […] Following the incubation with appropriate secondary antibody, immunoblots are analyzed using SuperSignal West Femto Maximum Sensitivity Substrate (ThermoFisher).
A general note: Immunoblotting shows a protein as a band on a membrane.

In experiment [2] the test system is AR-FL and AR-V7 mRNA. Nature of the experiment: mRNA levels of AR-FL and AR-V7 (quantitative PCR). It is filed as cell-based, human.

As to `Cc1ncsc1-c1ccc([C@H](C)NC(=O)[C@@H]2C[C@@H](O)CN2C(=O)[C@@H](NC(=O)CCCCNC(=O)COc2c(-c3csc(N4CCOCC4)n3)ccc(F)c2F)C(C)(C)C)cc1` [Example 16, (2S,4R)-1-((S)-2-(5-(2-(2,3-difluoro-6-(2-morpholinothiazol-4-yl)phenoxy)acetamido)pentanamido)-3,3-dimethylbutanoyl)-4-hydroxy-N-((S)-1-(4-(4-methylthiazol-5-yl)phenyl)ethyl)pyrrolidine-2-carboxamide], the “effect on expression level of glucocorticoid receptor (GR)” value in experiment [1] was “no visible effect”. Besides, in experiment [2], the “effect on mRNA levels of AR-FL and AR-V7” value is “no major effect”.
